Results: patent US8921424B2, “Histone deacetylase inhibitors, process for preparation and uses thereof” (Zhejiang Hisun Pharmaceutical Co. Ltd., priority 2007, dated 2014)

Tests used:
MDAMB435 = experiment: Cell-based proliferation assay (SRB), MDAMB435; conditions: Homo sapiens
Description: (§1) Cell-Based Proliferation Assay for Determination of GI50 Values
(§2) A rapid multiwell plate assay using Sulforhodamine B (SRB) protein stain was adopted to evaluate the growth inhibitory effects of the compounds of the present invention. The screening panel of cancer cell lines includes Colo205 and HCT116 colon cancer cells, MDA-MB231 and MDA-MB435 chest cancer cells, A549 lung cancer cells, and Chinese hamster ovary cell line CHO, which were obtained from ATCC.
(§3) The cell line Colo205 is grown in RPMI 1640 medium containing 2 mM L-glutamine, 5% fetal bovine serum, and 1.0 mM sodium pyruvic acid. Cell lines A549 and MDA-MB231 are grown in RPMI 1640 medium containing 2 mM L-glutamine and 5% fetal bovine serum. The cell line MDA-MB435 is grown in DMEM medium containing 2 mM L-glutamine and 5% fetal bovine serum. The cell lines HCT 116 is grown in IMEM medium containing 2 mM L-glutamine and 5% fetal bovine serum. The CHO cell line, used as a normal control on toxicity, is grown in a special medium for cell line. For a typical screening experiment, A549 and Colo205 cells are inoculated into 96-well microtiter plates, with 100 μL per well, and 2000 and 5000 cells per well respectively for either cell line. MDA-MB435, HCT116, MDA-MB231 and CHO cells are also inoculated into 96-well microtiter plates, with 6000 cells per well. After cell inoculation, the microtiter plates are incubated at 37° C., 5% CO2, and 100% relative humidity for 24 hr in order to make cells adhere to well wall.
(§4) After 24 h incubation or time zero for drug addition, with each cell line 50 μl of cold 50% (w/v) TCA is added to wells used for control to fix cells in situ. Also at time zero, cells in other wells are treated with 100 μl of compound of different concentrations for 24 hr, 48 hr, and 72 hr respectively, with varying final compound concentration (0.1 μM, 1 μM, 5 μM 10 μM). For each treatment duration at each compound concentration, there are triplicate wells, as well as an array of control wells including a blank control well (cell culture medium only, no cells), a no-compound control well (adding same volume of cell culture medium but no compound), a positive control well (treated with Suberoylanilide hydroxamic acid (SAHA)), and normal cell well control (CHO cells). Following the addition of compounds, cell plates are incubated for 24 h, 48 h or 72 h per treatment group at 37° C., 5% CO2, and 100% relative humidity. The Treatment is then terminated by addition of cold TCA and incubation of 1 hr at 4° C. The supernatant is discarded, and all wells are washed five times with de-ioned water and air dried. Then each well is added with 100 μl sulforhodamine B (SRB) solution (0.4% (w/v) made in 1% acetic acid) and cell plates are incubated for 20-30 minutes at room temperature. After staining, unbound dye is removed by washing five times with 1% acetic acid and the plates are air dried. Bound stain is subsequently solubilized with 10 mM (200 μL) Tris base with the help of 5 min platform vibration or pipetting up and down, and the absorbance is read on an automated plate reader (M5 detection system, MD Group Ltd.) at a wavelength of 565 nm (calibrated zero reading of blank control at wavelength of 690 nm). The analytical software, XL-fit has been used to generate GI50 from a series of data thus obtained.

HCT116 = experiment: Cell-based proliferation assay (SRB), HCT116; conditions: Homo sapiens
Description: as §1, §2, §3, §4

MDA-MB-435 = experiment: Xenograft model, MDA-MB-435; type: in vivo, mouse; conditions: i.p., 15 days
Excerpt: In Vivo Anti-Neoplastic (or Anti-Tumour) Effect of HDAC Inhibiting Agents
The efficacy of the selected compounds of the invention can then be determined using in vivo animal (mouse) xenograft studies. The animal xenograft model is one of the most commonly used in vivo cancer models for studying the pharmaceutically effective dosage, administration route, frequency and interval.
Athymic nude mice (Female, 5-6 week old, BALB/c, nu/nu, approximately 18-20 g body weight) are obtained from Vital River. The animals are kept on a 12 h light/dark cycle (0700-1900); food and water are provided ad libitum. All in vivo experiments are carried out in a specific pathogen-free facility (22° C.). The human cancer […] transplant model in athymic nude mice is constructed using xenograft cell lines colon cancer cell line colo205, breast cancer cell line MDA-MB435, and lung cancer cell line A549, all obtained from ATCC. Cultured cells are removed from culture plate wall by digestion, collected and suspended in cell culture medium containing no FBS, at a concentration of 5×10^6/0.2 ml, and brought to animal facility on ice. is 0.2 ml cell suspension is given to mice via rear left auxilliary subcutaneous scapular injection, using Size 6 needle. Animals are measured every 2-3 days on the size of tumor formation. After two weeks, those tumors that have been well grown without leak are removed from animals under sterile condition, split into several small fractions (2-3 mm in diameter), and injected s.c. into the rear left auxilliary subcutaneous scapular of animals. […] While the animas being treated, body weight of the animal and size of the tumor are measured every 3 days, with mortality also recorded. […] Tumors are removed, weighed, and measured. […] Tumor-inhibition rate, mortality, as well as relative tumor proliferationrate T/C (%) are calculated. […]
Significant differences in tumor growth rate were determined by analysis of variance (Table 5).

PC-3 = experiment: Xenograft model, PC-3; type: in vivo, mouse; conditions: i.p., 15 days

GI50 (MDAMB435; MDA-MB-435, Table 3)	GI50 (HCT116; HCT-116, Table 3)	GI50 (MDAMB435; MDA-MB-435, Table 4)	GI50 (HCT116; HCT-116, Table 4)	Compound	T/C(%) MDA-MB-435 (MDA-MB-435; 80 mg/kg)	T/C(%) PC-3 (PC-3; 80 mg/kg)	T/C(%) MDA-MB-435 (MDA-MB-435; 30 mg/kg)	T/C(%) PC-3 (PC-3; 30 mg/kg)	T/C(%) MDA-MB-435 (MDA-MB-435; 200 mg/kg)	T/C(%) PC-3 (PC-3; 200 mg/kg)
2.65 µM	1.35 µM	2.65 µM		CCCCc1nc2cc(/C=C/C(=O)NO)ccc2n1CCN(CC)CC [SB939, reference compound]			58% (30,15)	>60% (30,15)		
3.1 µM	3.99 µM	3.1 µM	3.99 µM	CCCCCNc1cc(/C=C/C(=O)NO)ccc1SCCN(CC)CC [Example 2, 3-(4-(2-(diethylamino)ethylthio)-3-(pentylamino)phenyl)-N-hydroxy-acrylamide]					>60% (200,15)	43% (200,15)

Compound	GI50 (MDAMB435; MDA-MB-435, Table 3)	GI50 (HCT116; HCT-116, Table 3)	GI50 (MDAMB435; MDA-MB-435, Table 4)	GI50 (HCT116; HCT-116, Table 4)	T/C(%) MDA-MB-435 (MDA-MB-435; 80 mg/kg)	T/C(%) PC-3 (PC-3; 80 mg/kg)	T/C(%) MDA-MB-435 (MDA-MB-435; 30 mg/kg)	T/C(%) PC-3 (PC-3; 30 mg/kg)	T/C(%) MDA-MB-435 (MDA-MB-435; 200 mg/kg)	T/C(%) PC-3 (PC-3; 200 mg/kg)
O=C(CCCCCCC(=O)Nc1ccccc1)NO [SAHA, suberoylanilide hydroxamic acid, reference compound]	4.1 µM	1.52 µM			>60% (80,15)	37% (80,15)				
